Data published in US12297294B2, “Cortistatin analogues for the treatment of inflammatory and/or immune diseases” (BCN PEPTIDES, S.A., priority 2013, dated 2025).
Where a SMILES comes first, the peptide text is derived from it. Bridges are numbered along the chain shown (N, C = ends). [ ]: non-standard residue; d: D form. The star is where a group is joined. Phe(2,4,6-Me3) = Cc1cc(C)c(C[C@H](N)C(=O)O)c(C)c1; Phe(3,5-F2) = N[C@@H](Cc1cc(F)cc(F)c1)C(=O)O; Myristoyl = CCCCCCCCCCCCCC(=O)*; Octanoyl = CCCCCCCC(=O)*

What was measured:
[1] = Serum stability in 90% human serum at 37° C., RP-HPLC; format: in vitro ADME; conditions: for main metabolite in serum: loss of C-terminal Lys
Description: The new compounds were incubated with 90% human serum at 37° C. Aliquots were extracted at different incubation times. Methanol was added to precipitate the proteins from the serum, it was centrifuged and the supernatant was subject to a chromatographic analysis using RP-HPLC (Gradient: 20-80% B in 30 min, B=0.07% TFA in acetonitrile). The disappearance of the initial product was analyzed using the area corresponding to the initial product and half-life time was calculated.

T cells (splenocytes) = experiment: Immune response in vitro: anti-CD3 stimulated splenocyte T cells, proliferation and cytokines; format: cell-based, C57B1I/6 mice; conditions: anti-CD3 2 μg/ml, peptide 100 nM; for INFγ level in supernatant / IL-2 level in supernatant: 48 hours; for INFγ level in supernatant: activated 2.52, basal 0; for IL-2 level in supernatant: activated 3.22, basal 0.23; for proliferation ([3H]-thymidine incorporation): 72 hours, activated 9843, basal 640
Description: Splenocytes from 8 week old male C57B1I/6 mice were obtained after mechanical dissociation of cells, filtration through a nylon mesh and lysis of red blood cells. The splenocytes were incubated in complete DMEM medium until a density of 10^6 cells/ml. The non-adherent cells (formed in 80% by T cells) were used for measuring cytokines and for proliferation assays. The T cells were cultured in complete DMEM medium and stimulated with anti-CD3 antibodies (2 μg/ml) in the presence of different cortistatin analogues at a concentration of 100 nM. After 48 hours, the supernatants of the culture were isolated and the levels of cytokines (IFNγ and IL-2) were determined by using an ELISA test. In order to determine the effect of the different cortistatin analogues in proliferation, the cells were cultured for 72 hours and 0.5 μCi (0.0185 MBq)/well of [^3H]— thymidine was added for the last 8 hours of culture, the membranes were collected and the added [^3H]-Thymidine was measured using a scintillation counter.
For comparison, the values of cortistatin-14 (CST-14), somatostatin-14 (SOM-14) and three somatostatin analogues described in WO 2010/128098 A1 were determined: […]

Raw 264 cells = experiment: Inflammatory response in vitro: LPS-stimulated Raw 264 cells, cytokines (ELISA) and NO (Griess); format: cell-based; conditions: LPS 1 μg/ml, peptide 100 nM, 24 hours; for NO (nitric oxide) level in supernatant: Griess test, basal 0.44; for IL-6 level in supernatant: basal 0; for TNFalpha level in supernatant: basal 0.48
Description: Raw 264 cells were cultured in complete DMEM medium until a confluence of 80% was reached. The cells were incubated either in the absence or presence of lipopolysaccharide (LPS, 1 μg/ml, from E. coli serotype 055:B5). The cells incubated in the absence of lipopolysaccharide were used as a reference (basal). The new cortistatin analogues were added at 100 nM concentration at the start of the culture. After 24 hours, the supernatants were collected and cytokine and nitric oxide levels were measured. The cytokine level (TNFalpha and IL-6) was established using a ELISA test. The quantity of nitric oxide (NO) was established using the Griess test. Equal volumes of supernatants from the culture (90 μl) and Griess reagents were mixed and absorbance was measured at 550 nm. The nitrite amount was calculated in relation to a standard NaNO2 curve.
For comparison, the values of cortistatin-14 (CST-14), somatostatin-14 (SOM-14) and three somatostatin analogues described in WO 2010/128098 A1 were evaluated: […]

[2] = target: T1, somatostatin receptor sstr3 (UniProt P32745 1-418, limits assumed); experiment: radioligand competition vs 125I-Tyr11-somatostatin 14, CHO-K1 cells expressing sstr3, 0.1 nM to 10 uM
T1 construct: whole, on cells
T1 sequence (P32745 whole entry): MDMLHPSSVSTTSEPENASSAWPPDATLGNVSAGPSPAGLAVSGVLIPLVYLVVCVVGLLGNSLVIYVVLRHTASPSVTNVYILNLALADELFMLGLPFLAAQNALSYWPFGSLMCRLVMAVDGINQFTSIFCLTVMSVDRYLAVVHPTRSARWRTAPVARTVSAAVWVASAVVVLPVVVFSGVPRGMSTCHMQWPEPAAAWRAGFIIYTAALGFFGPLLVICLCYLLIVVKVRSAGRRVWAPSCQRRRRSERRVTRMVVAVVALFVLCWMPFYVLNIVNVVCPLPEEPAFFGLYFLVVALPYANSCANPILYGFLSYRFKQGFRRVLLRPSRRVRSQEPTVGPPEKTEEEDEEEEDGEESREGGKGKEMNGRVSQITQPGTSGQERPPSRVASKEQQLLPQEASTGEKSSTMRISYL
Description: (§1) CHO-K1 cells in which each of the 5 somatostatin receptors (sstr1-sstr5) were expressed independently were used. […] The radioactivity obtained in the absence of somatostatin-14 was considered as the total binding and that obtained in the presence of 1 μM of somatostatin-14 was considered as the non-specific bond. The specific binding was considered as the difference between the complete binding and the non-specific binding.

[3] = target: T2, somatostatin receptor sstr2 (UniProt P30874 1-369, limits assumed); experiment: radioligand competition vs 125I-Tyr11-somatostatin 14, CHO-K1 cells expressing sstr2, 0.1 nM to 10 uM
T2 construct: whole, on cells
T2 sequence (P30874 whole entry): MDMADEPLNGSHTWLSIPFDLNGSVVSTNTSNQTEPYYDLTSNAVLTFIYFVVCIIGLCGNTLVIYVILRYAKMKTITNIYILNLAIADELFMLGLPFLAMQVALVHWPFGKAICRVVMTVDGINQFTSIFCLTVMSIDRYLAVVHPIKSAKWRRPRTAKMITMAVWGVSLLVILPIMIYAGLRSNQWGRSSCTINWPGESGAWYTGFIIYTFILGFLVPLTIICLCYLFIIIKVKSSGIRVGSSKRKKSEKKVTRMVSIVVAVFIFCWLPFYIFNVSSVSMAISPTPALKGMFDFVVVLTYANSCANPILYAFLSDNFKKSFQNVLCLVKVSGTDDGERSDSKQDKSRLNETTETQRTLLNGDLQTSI
Description: as §1

[4] = target: T3, somatostatin receptor sstr5 (UniProt P35346 1-364, limits assumed); experiment: radioligand competition vs 125I-Tyr11-somatostatin 14, CHO-K1 cells expressing sstr5, 0.1 nM to 10 uM
T3 construct: whole, on cells
T3 sequence (P35346 whole entry): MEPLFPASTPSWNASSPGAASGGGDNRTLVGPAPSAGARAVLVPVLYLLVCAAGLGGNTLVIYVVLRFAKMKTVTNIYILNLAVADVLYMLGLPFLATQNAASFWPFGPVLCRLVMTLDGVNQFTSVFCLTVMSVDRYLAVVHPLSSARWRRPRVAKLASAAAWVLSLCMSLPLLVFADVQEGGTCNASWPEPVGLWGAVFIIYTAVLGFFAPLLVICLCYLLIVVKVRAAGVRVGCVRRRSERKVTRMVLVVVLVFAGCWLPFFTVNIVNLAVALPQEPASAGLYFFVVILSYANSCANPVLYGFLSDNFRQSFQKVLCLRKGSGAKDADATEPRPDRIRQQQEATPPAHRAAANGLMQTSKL
Description: as §1

[5] = target: T4, somatostatin receptor sstr1 (UniProt P30872 1-391, limits assumed); experiment: radioligand competition vs 125I-Tyr11-somatostatin 14, CHO-K1 cells expressing sstr1, 0.1 nM to 10 uM
T4 construct: whole, on cells
T4 sequence (P30872 whole entry): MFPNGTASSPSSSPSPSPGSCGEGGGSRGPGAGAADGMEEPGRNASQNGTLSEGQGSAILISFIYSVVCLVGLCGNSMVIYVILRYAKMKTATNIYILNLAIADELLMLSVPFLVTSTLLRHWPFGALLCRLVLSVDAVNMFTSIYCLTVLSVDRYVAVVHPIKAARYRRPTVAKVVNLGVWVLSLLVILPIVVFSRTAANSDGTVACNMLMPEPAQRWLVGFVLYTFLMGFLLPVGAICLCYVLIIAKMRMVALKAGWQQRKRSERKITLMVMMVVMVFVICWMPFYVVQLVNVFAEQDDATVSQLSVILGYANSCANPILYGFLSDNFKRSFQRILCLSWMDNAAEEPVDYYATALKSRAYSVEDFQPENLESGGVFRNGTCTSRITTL
Description: as §1

Molecule: CCCCCCCC(=O)N1CCC[C@H]1C(=O)N[C@H]1CSSC[C@@H](C(=O)N[C@@H](CCCCN)C(=O)O)NC(=O)[C@H](CO)NC(=O)[C@H]([C@@H](C)O)NC(=O)[C@H](Cc2ccccc2)NC(=O)[C@H]([C@@H](C)O)NC(=O)[C@H](CCCCN)NC(=O)[C@@H](Cc2c[nH]c3ccccc23)NC(=O)[C@H](Cc2ccccc2)NC(=O)[C@H](Cc2c(C)cc(C)cc2C)NC(=O)[C@H](CC(N)=O)NC(=O)[C@H](CCCCN)NC1=O [Compound 4, Octanoyl-L-Pro-c[L-Cys-L-Lys-L-Asn-L-Msa-L-Phe-D-Trp-L-Lys-L-Thr-L-Phe-L-Thr-L-Ser-L-Cys-]-L-Lys-OH]
- half-life [1]: 0.35 h
- main metabolite in serum [1]: compound 5

Molecule: CCCCCCCC(=O)N1CCC[C@H]1C(=O)N[C@H]1CSSC[C@@H](C(=O)O)NC(=O)[C@H](CO)NC(=O)[C@H]([C@@H](C)O)NC(=O)[C@H](Cc2ccccc2)NC(=O)[C@H]([C@@H](C)O)NC(=O)[C@H](CCCCN)NC(=O)[C@@H](Cc2c[nH]c3ccccc23)NC(=O)[C@H](Cc2ccccc2)NC(=O)[C@H](Cc2c(C)cc(C)cc2C)NC(=O)[C@H](CC(N)=O)NC(=O)[C@H](CCCCN)NC1=O [Compound 5, Octanoyl-L-Pro-c[L-Cys-L-Lys-L-Asn-L-Msa-L-Phe-D-Trp-L-Lys-L-Thr-L-Phe-L-Thr-L-Ser-L-Cys]-OH]
- half-life [1]: 35 h

Molecule: C[C@H](N)C(=O)NCC(=O)N[C@H]1CSSC[C@@H](C(=O)O)NC(=O)[C@H](CO)NC(=O)[C@H]([C@@H](C)O)NC(=O)[C@H](Cc2ccccc2)NC(=O)[C@H]([C@@H](C)O)NC(=O)[C@H](CCCCN)NC(=O)[C@@H](Cc2c[nH]c3ccccc23)NC(=O)[C@H](Cc2cc(F)cc(F)c2)NC(=O)[C@H](Cc2ccccc2)NC(=O)[C@H](CC(N)=O)NC(=O)[C@H](CCCCN)NC1=O [Compound 6, H-L-Ala-Gly-c[L-Cys-L-Lys-L-Asn-L-Phe-L-Dfp-D-Trp-L-Lys-L-Thr-L-Phe-L-Thr-L-Ser-L-Cys]-OH]
- half-life [1]: 3.8 h

Molecule: H2N-AGc[CKNFFWKTFTSC]-OH (AGCKNFFWKTFTSC; disulfide cyclised; Somatostatin-14; DISULFID (3)..(14)) [SST-14, endogenous peptide somatostatin-14]
- INFγ level in supernatant (T cells (splenocytes)): 2.31 ng/mL
- IL-2 level in supernatant (T cells (splenocytes)): 3.14 ng/mL
- proliferation ([3H]-thymidine incorporation) (T cells (splenocytes)): 9936
- NO (nitric oxide) level in supernatant (Raw 264 cells): 4.32 ng/mL
- IL-6 level in supernatant (Raw 264 cells): 4.2 ng/mL
- TNFalpha level in supernatant (Raw 264 cells): 5.21 ng/mL

Molecule: C[C@@H](O)[C@@H]1NC(=O)[C@H](CCCCN)NC(=O)[C@H](Cc2c[nH]c3ccccc23)NC(=O)[C@H](Cc2ccccc2)NC(=O)[C@H](Cc2ccccc2)NC(=O)[C@H](CC(N)=O)NC(=O)[C@H](CCCCN)NC(=O)[C@@H](NC(=O)[C@@H]2CCCN2)CSSC[C@@H](C(=O)N[C@@H](CCCCN)C(=O)O)NC(=O)[C@H](CO)NC(=O)[C@H](CO)NC(=O)[C@H](Cc2ccccc2)NC1=O [CST-14] (H-PCKNFFWKTFSSCK-OH; disulfide 2-13)
- INFγ level in supernatant (T cells (splenocytes)): 1.13 ng/mL
- IL-2 level in supernatant (T cells (splenocytes)): 1.52 ng/mL
- proliferation ([3H]-thymidine incorporation) (T cells (splenocytes)): 5500
- NO (nitric oxide) level in supernatant (Raw 264 cells): 3.08 ng/mL
- IL-6 level in supernatant (Raw 264 cells): 3.78 ng/mL
- TNFalpha level in supernatant (Raw 264 cells): 3.17 ng/mL
- main metabolite in serum [1]: compound 14

B1: Compound 10: Myristoyl-L-Asp-L-Arg-L-Met-L-Pro-c[L-Cys-L-Arg-L-Asn-L-Msa-L-Phe-L-Trp-L-Lys-L-Thr-L-Phe-L-Thr-L-Ser-L-Cys]-L-Lys-OH (peptide)
peptide: Myristoyl-DRMPCRN[Phe(2,4,6-Me3)]FWKTFTSCK-OH
modifications: disulfide 5-16
SMILES: CCCCCCCCCCCCCC(=O)N[C@@H](CC(=O)O)C(=O)N[C@@H](CCCNC(=N)N)C(=O)N[C@@H](CCSC)C(=O)N1CCC[C@H]1C(=O)N[C@H]1CSSC[C@@H](C(=O)N[C@@H](CCCCN)C(=O)O)NC(=O)[C@H](CO)NC(=O)[C@H]([C@@H](C)O)NC(=O)[C@H](Cc2ccccc2)NC(=O)[C@H]([C@@H](C)O)NC(=O)[C@H](CCCCN)NC(=O)[C@H](Cc2c[nH]c3ccccc23)NC(=O)[C@H](Cc2ccccc2)NC(=O)[C@H](Cc2c(C)cc(C)cc2C)NC(=O)[C@H](CC(N)=O)NC(=O)[C@H](CCCNC(=N)N)NC1=O
- percentage of inhibition of specific binding [2]: > 50%
- percentage of inhibition of specific binding [3]: > 50%
- percentage of inhibition of specific binding [4]: > 50%
- percentage of inhibition of specific binding [5]: > 50%

B2: Compound 9: H-L-Asp-L-Arg-L-Met-L-Pro-c[L-Cys-L-Arg-L-Asn-L-Msa-L-Phe-L-Trp-L-Lys-L-Thr-L-Phe-L-Thr-L-Ser-L-Cys]-L-Lys-OH (peptide)
peptide: H-DRMPCRN[Phe(2,4,6-Me3)]FWKTFTSCK-OH
modifications: disulfide 5-16
SMILES: CSCC[C@H](NC(=O)[C@H](CCCNC(=N)N)NC(=O)[C@@H](N)CC(=O)O)C(=O)N1CCC[C@H]1C(=O)N[C@H]1CSSC[C@@H](C(=O)N[C@@H](CCCCN)C(=O)O)NC(=O)[C@H](CO)NC(=O)[C@H]([C@@H](C)O)NC(=O)[C@H](Cc2ccccc2)NC(=O)[C@H]([C@@H](C)O)NC(=O)[C@H](CCCCN)NC(=O)[C@H](Cc2c[nH]c3ccccc23)NC(=O)[C@H](Cc2ccccc2)NC(=O)[C@H](Cc2c(C)cc(C)cc2C)NC(=O)[C@H](CC(N)=O)NC(=O)[C@H](CCCNC(=N)N)NC1=O
- percentage of inhibition of specific binding [2]: > 50%
- percentage of inhibition of specific binding [3]: > 50%
- percentage of inhibition of specific binding [4]: > 50%
- percentage of inhibition of specific binding [5]: > 50%

B3: Compound 5: Octanoyl-L-Pro-c[L-Cys-L-Lys-L-Asn-L-Msa-L-Phe-D-Trp-L-Lys-L-Thr-L-Phe-L-Thr-L-Ser-L-Cys]-OH (peptide)
peptide: Octanoyl-PCKN[Phe(2,4,6-Me3)]F[dW]KTFTSC-OH
modifications: disulfide 2-13
SMILES: CCCCCCCC(=O)N1CCC[C@H]1C(=O)N[C@H]1CSSC[C@@H](C(=O)O)NC(=O)[C@H](CO)NC(=O)[C@H]([C@@H](C)O)NC(=O)[C@H](Cc2ccccc2)NC(=O)[C@H]([C@@H](C)O)NC(=O)[C@H](CCCCN)NC(=O)[C@@H](Cc2c[nH]c3ccccc23)NC(=O)[C@H](Cc2ccccc2)NC(=O)[C@H](Cc2c(C)cc(C)cc2C)NC(=O)[C@H](CC(N)=O)NC(=O)[C@H](CCCCN)NC1=O
- percentage of inhibition of specific binding [2]: > 50%
- percentage of inhibition of specific binding [3]: > 50%
- percentage of inhibition of specific binding [4]: > 50%
- percentage of inhibition of specific binding [5]: > 50%

B4: Compound 8: H-L-Pro-c[L-Cys-L-Lys-L-Asn-L-Dfp-L-Phe-L-Trp-L-Lys-L-Thr-L-Msa-L-Ser-L-Ser-L-Cys]-L-Lys-NH2 (peptide)
peptide: H-PCKN[Phe(3,5-F2)]FWKT[Phe(2,4,6-Me3)]SSCK-NH2
modifications: disulfide 2-13
- percentage of inhibition of specific binding [2]: > 50%
- percentage of inhibition of specific binding [3]: > 50%
- percentage of inhibition of specific binding [4]: > 50%
- percentage of inhibition of specific binding [5]: > 50%
